Data as given in patent US8921267B2, “Safening 6-(trisubstituted phenyl)-4-amino-2-pyridinecarboxylate herbicide injury on cereal crops” (Dow AgroSciences LLC, priority 2008, dated 2014).

Assays:
[1] = test system: barley (Hordeum vulgare L; HORVS); experiment: Postemergence herbicidal safening, greenhouse, visual injury: barley; type: in vivo; conditions: for HORVS Ob: applied alone
Method in brief: (§1)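 Greenhouse, 18/17 °C, 14 h light; seedlings at 2–3 leaves; Compound 1 salts/ester ± safener in Agri-dex 1.5%, 187 L/ha overhead spray; sub-irrigation; visual % injury at 20-22 d; synergy via Colby.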

[2] = test system: wild pansy (Viola tricolor L; VIOTR); experiment: Postemergence herbicidal activity, greenhouse, visual injury: wild pansy; type: in vivo; conditions: for VIOTR Ob: applied alone
Method in brief: (§2)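 Injury was rated visually on a 0 (none) to 100% (complete kill) scale 20-22 d after treatment, relative to solvent-blank plants. Treatments were two-way safener/herbicide combinations in 1.5% v/v crop oil concentrate, applied overhead at 187 L/ha to plants at the 2nd–3rd true leaf stage. Colby's equation gave expected mixture effects.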

[3] = test system: wheat (Triticum aestivum L; TRZAS); experiment: Postemergence herbicidal safening, greenhouse, visual injury: wheat; type: in vivo; conditions: for TRZAS Ob: applied alone
Method in brief: as §1

[4] = test system: scented mayweed (Matricaria chamomila L; MATCH); experiment: Postemergence herbicidal activity, greenhouse, visual injury: scented mayweed; type: in vivo; conditions: Glyphosate 52.5 g/ha alone
Method: (§3) Evaluation of Postemergence Herbicidal Safening in Cereal Crops
(§4) Seeds of the desired test plant species were planted in Sun Gro MetroMix® 306 planting mixture, which typically has a pH of 6.0 to 6.8 and an organic matter content of about 30 percent, in plastic pots with a surface area of 103.2 square centimeters (cm^2). When required to ensure good germination and healthy plants, a fungicide treatment and/or other chemical or physical treatment was applied. The plants were grown for 7-36 days (d) in a greenhouse with an approximate 14-hour (h) photoperiod which was maintained at about 18° C. during the day and 17° C. during the night. Nutrients and water were added on a regular basis and supplemental lighting was provided with overhead metal halide 1000-Watt lamps as necessary. The plants were employed for testing when they reached the second or third true leaf stage.
(§5) Weighed amounts of esters (methyl) or salts (TEA [triethylammonium], K [potassium]) of 4-amino-3-chloro-6-(4-chloro-2-fluoro-3-methoxyphenyl)pyridine-2-carboxylic acid (Compound 1) were dissolved in a volume of 97:3 volume/volume (v/v) acetone/dimethylsulfoxide (DMSO) to obtain stock solutions. […] The concentrated stock solutions were diluted with an aqueous mixture of 1.5% v/v of Agri-dex crop oil concentrate to provide the appropriate application rates. Compound requirements are based upon a 12 mL application volume at a rate of 187 liters per hectare (L/ha). Stocks solutions of the safeners were prepared following the same procedure. Spray solutions of the safeners and experimental compound mixtures were prepared by adding the stock solutions to the appropriate amount of dilution solution to form a 12 mL spray solution with active ingredients in two-way combinations. Formulated compounds were applied to the plant material with an overhead Mandel track sprayer equipped with 8002E nozzles calibrated to deliver 187 L/ha over an application area of 0.503 square meters (m^2) at a spray height of 18 inches (43 centimeters (cm)) above average plant canopy. Control plants were sprayed in the same manner with the solvent blank.
(§6) The treated plants and control plants were placed in a greenhouse as described above and watered by sub-irrigation to prevent wash-off of the test compounds. After 20-22 d, the condition of the test plants as compared with that of the control plants was determined visually and scored on a scale of 0 to 100 percent where 0 corresponds to no injury and 100 corresponds to complete kill.
(§7) Colby's equation was used to determine the herbicidal effects expected from the mixtures (Colby, S. R. Calculation of the synergistic and antagonistic response of herbicide combinations. Weeds 1967, 15, 20-22.).
(§8) The following equation was used to calculate the expected activity of mixtures containing two active ingredients, A and B: Expected=A+B−(A×B/100)
(§9) A=observed efficacy of active ingredient A at the same concentration as used in the mixture.
(§10) B=observed efficacy of active ingredient B at the same concentration as used in the mixture.

[5] = test system: cleavers (Galium aparine L; GALAP); experiment: Postemergence herbicidal activity, greenhouse, visual injury: cleavers; type: in vivo; conditions: applied alone
Method in brief: as §1

[6] = test system: chickweed (Stellaria media L; STEME); experiment: Postemergence herbicidal activity, greenhouse, visual injury: chickweed; type: in vivo; conditions: applied alone
Method in brief: as §1

[7] = test system: wheat (Triticum aestivum L; TRZAW); experiment: Postemergence herbicidal safening, greenhouse, visual injury: wheat (TRZAW); type: in vivo
Method: as §3, §4, §5, §6, §7, §8, §9, §10

[8] = test system: bird's-eye speedwell (Veronica persica L; VERPE); experiment: Postemergence herbicidal activity, greenhouse, visual injury: bird's-eye speedwell; type: in vivo; conditions: applied alone
Method in brief: as §1

[9] = test system: durum wheat (Triticum durum L; TRZDU); experiment: Postemergence herbicidal safening, greenhouse, visual injury: durum wheat; type: in vivo
Method: as §3, §4, §5, §6, §7, §8, §9, §10

[10] = test system: wild buckwheat (Polygonum convolvulus L; POLCO); experiment: Postemergence herbicidal activity, greenhouse, visual injury: wild buckwheat; type: in vivo; conditions: applied alone
Method in brief: as §1

barley (HORVW) = experiment: Postemergence herbicidal safening, greenhouse, visual injury: barley (HORVW)
[11] = test system: Russian thistle (Salsola iberica L; SASKR); experiment: Postemergence herbicidal activity, greenhouse, visual injury: Russian thistle; type: in vivo; conditions: applied alone
Method in brief: as §1

[12] = test system: purple deadnettle (Lamium purpureum L; LAMPU); experiment: Postemergence herbicidal activity, greenhouse, visual injury: purple deadnettle; type: in vivo
Method in brief: as §2

[13] = test system: corn poppy (Papaver rhoeas L; PAPRH); experiment: Postemergence herbicidal activity, greenhouse, visual injury: corn poppy; type: in vivo; conditions: for PAPRH Ob: applied alone
Method in brief: as §2

In the case of `O=C(O)CNCP(=O)(O)O` [Glyphosate], the “HORVS Ob (Observed values)” value ([1]; Glyphosate 52.5 g/ha alone) is reported as 13, the “VIOTR Ob (Observed values)” value ([2]; Glyphosate 52.5 g/ha alone) is reported as 52 and the “TRZAS Ob (Observed values)” value ([3]; Glyphosate 52.5 g/ha alone) is reported as 48. For the same compound, the “MATCH Ob (Observed values)” value [4] was 28.

`CCOC(=O)C1=NN(c2ccc(Cl)cc2Cl)C(C)(C(=O)OCC)C1` (centres unmarked) [Mefenpyr-diethyl] gave an HORVS Ob ([1]; 17.5 g/ha) of 0%, an HORVS Ob ([1]; 35 g/ha) of 0% and an HORVS Ob ([1]; 70 g/ha) of 0%. The HORVS Ob ([1]; 140 g/ha) was 0%, the “HORVS Ob (Observed values)” value ([1]; safener 4.4 g/ha alone) was 0 and the “HORVS Ob (Observed values)” value ([1]; safener 8.8 g/ha alone) was 0. For the same compound, the “HORVS Ob (Observed values)” value ([1]; safener 17.5 g/ha alone) was 0, the “HORVS Ob (Observed values)” value ([1]; safener 35 g/ha alone) was 0 and the “GALAP Ob” value ([5]; 17.5 g/ha) was 0. The “GALAP Ob” value ([5]; 35 g/ha) was 0, the “GALAP Ob” value ([5]; 70 g/ha) was 0 and the “GALAP Ob” value ([5]; 140 g/ha) was 0. For the same compound, the “VIOTR Ob” value ([2]; 17.5 g/ha) was 0, the “VIOTR Ob” value ([2]; 35 g/ha) was 0 and the “VIOTR Ob” value ([2]; 70 g/ha) was 0. For the same compound, the “VIOTR Ob” value ([2]; 140 g/ha) was 0, the “STEME Ob” value ([6]; 17.5 g/ha) was 0 and the “STEME Ob” value ([6]; 35 g/ha) was 0. For the same compound, the “STEME Ob” value ([6]; 70 g/ha) was 0, the “STEME Ob” value ([6]; 140 g/ha) was 0 and the TRZAW Ob (Observed values) ([7]; safener 4.4 g/ha alone) was 0%. The TRZAW Ob (Observed values) ([7]; safener 8.8 g/ha alone) was 0%, the TRZAW Ob (Observed values) ([7]; safener 17.5 g/ha alone) was 0% and the TRZAW Ob (Observed values) ([7]; safener 35 g/ha alone) was 0%. For the same compound, the TRZAS Ob ([3]; 17.5 g/ha) was 0%, the TRZAS Ob ([3]; 35 g/ha) was 0% and the TRZAS Ob ([3]; 70 g/ha) was 0%. The TRZAS Ob ([3]; 140 g/ha) was 0%, the “TRZAS Ob (Observed values)” value ([3]; safener 4.4 g/ha alone) was 0 and the “TRZAS Ob (Observed values)” value ([3]; safener 8.8 g/ha alone) was 0. For the same compound, the “TRZAS Ob (Observed values)” value ([3]; safener 17.5 g/ha alone) was 0, the “TRZAS Ob (Observed values)” value ([3]; safener 35 g/ha alone) was 0 and the “VERPE Ob” value ([8]; 17.5 g/ha) was 0. For the same compound, the “VERPE Ob” value ([8]; 35 g/ha) was 0, the “VERPE Ob” value ([8]; 70 g/ha) was 0 and the “VERPE Ob” value ([8]; 140 g/ha) was 0. The TRZDU Ob (Observed values) ([9]; safener 4.4 g/ha alone) was 0%, the TRZDU Ob (Observed values) ([9]; safener 8.8 g/ha alone) was 0% and the TRZDU Ob (Observed values) ([9]; safener 17.5 g/ha alone) was 0%. The TRZDU Ob (Observed values) ([9]; safener 35 g/ha alone) was 0%, the “POLCO Ob” value ([10]; 17.5 g/ha) was 0 and the “POLCO Ob” value ([10]; 35 g/ha) was 0. For the same compound, the “POLCO Ob” value ([10]; 70 g/ha) was 0, the “POLCO Ob” value ([10]; 140 g/ha) was 0 and the HORVW Ob (Observed values) (barley (HORVW); safener 4.4 g/ha alone) was 0%. For the same compound, the HORVW Ob (Observed values) (barley (HORVW); safener 8.8 g/ha alone) was 0%, the HORVW Ob (Observed values) (barley (HORVW); safener 17.5 g/ha alone) was 0% and the HORVW Ob (Observed values) (barley (HORVW); safener 35 g/ha alone) was 0%. The “SASKR Ob” value ([11]; 17.5 g/ha) was 0, the “SASKR Ob” value ([11]; 35 g/ha) was 0 and the “SASKR Ob” value ([11]; 70 g/ha) was 0. For the same compound, the “SASKR Ob” value ([11]; 140 g/ha) was 0, the “LAMPU Ob (Observed values)” value ([12]; safener 4.4 g/ha alone) was 0 and the “LAMPU Ob (Observed values)” value ([12]; safener 8.8 g/ha alone) was 0. For the same compound, the “LAMPU Ob (Observed values)” value ([12]; safener 17.5 g/ha alone) was 0, the “LAMPU Ob (Observed values)” value ([12]; safener 35 g/ha alone) was 0 and the “PAPRH Ob” value ([13]; 17.5 g/ha) was 0. The “PAPRH Ob” value ([13]; 35 g/ha) was 0, the “PAPRH Ob” value ([13]; 70 g/ha) was 0 and the “PAPRH Ob” value ([13]; 140 g/ha) was 0. For the same compound, the “PAPRH Ob (Observed values)” value ([13]; safener 4.4 g/ha alone) was 0, the “PAPRH Ob (Observed values)” value ([13]; safener 8.8 g/ha alone) was 0 and the “PAPRH Ob (Observed values)” value ([13]; safener 17.5 g/ha alone) was 0. The “PAPRH Ob (Observed values)” value ([13]; safener 35 g/ha alone) was 0.
